Reference: the NIST ThermoML archive (doi:10.1021/je049842u)

How the values were obtained:
[1] = Liquid, Closed cell (Static) method
[2] = compressibility factor (dimensionless); conditions: Gas, Burnett expansion method

[N-]=[N+]=O [nitrous oxide]
[1]
Conditions | vapor or sublimation pressure [kPa]
219.24 K | 554.7
222.28 K | 626.3
223.31 K | 652.8
227.32 K | 759.6
227.36 K | 760.6
232.37 K | 912.1
232.43 K | 915.4
237.49 K | 1092.9
242.57 K | 1294.7
247.65 K | 1521.9
252.73 K | 1777
257.8 K | 2061.8
257.87 K | 2065.4
262.9 K | 2379
262.95 K | 2381.8
267.98 K | 2730.6
268.03 K | 2734
273.08 K | 3119.9

[2]
Conditions | compressibility factor
283.5 K, 207.4 kPa | 0.9884
283.5 K, 308.1 kPa | 0.9809
283.5 K, 456.3 kPa | 0.9705
283.5 K, 672.4 kPa | 0.9554
283.5 K, 983.6 kPa | 0.9337
283.5 K, 1422.1 kPa | 0.9019
283.5 K, 2020 kPa | 0.8558
283.5 K, 2788.1 kPa | 0.7891
283.5 K, 3680.3 kPa | 0.6958
283.51 K, 170.6 kPa | 0.9917
283.51 K, 253.7 kPa | 0.9848
283.51 K, 376.3 kPa | 0.9761
283.51 K, 556.2 kPa | 0.9636
283.51 K, 816.9 kPa | 0.9456
283.51 K, 1188.9 kPa | 0.9193
283.51 K, 1705.3 kPa | 0.8809
283.51 K, 2390.6 kPa | 0.825
283.51 K, 3232.1 kPa | 0.7451
304.09 K, 194 kPa | 0.99
304.09 K, 288.7 kPa | 0.9846
304.09 K, 429.3 kPa | 0.9779
304.09 K, 635.2 kPa | 0.9666
304.09 K, 935.6 kPa | 0.9511
304.09 K, 1366.6 kPa | 0.9281
304.09 K, 1968.7 kPa | 0.8932
304.09 K, 2781.3 kPa | 0.843
304.09 K, 3812.3 kPa | 0.772
304.1 K, 204 kPa | 0.9912
304.1 K, 303.6 kPa | 0.9853
304.1 K, 450.8 kPa | 0.9772
304.1 K, 666.7 kPa | 0.9655
304.1 K, 980.2 kPa | 0.9484
304.1 K, 1428.5 kPa | 0.9233
304.1 K, 2054.5 kPa | 0.8871
304.1 K, 2893.4 kPa | 0.8347
304.1 K, 3945.6 kPa | 0.7604
314.41 K, 193.8 kPa | 0.9927
314.41 K, 288.6 kPa | 0.9878
314.41 K, 429 kPa | 0.9808
314.41 K, 635.5 kPa | 0.9706
314.41 K, 936.8 kPa | 0.9558
314.41 K, 1371.3 kPa | 0.9347
314.41 K, 1984.4 kPa | 0.9036
314.41 K, 2822.9 kPa | 0.8587
314.41 K, 3911.4 kPa | 0.7949
314.42 K, 201.1 kPa | 0.992
314.42 K, 299.5 kPa | 0.9869
314.42 K, 445.1 kPa | 0.9798
314.42 K, 659.3 kPa | 0.9696
314.42 K, 971.5 kPa | 0.9545
314.42 K, 1420.6 kPa | 0.9324
314.42 K, 2052.9 kPa | 0.9001
314.42 K, 2915.1 kPa | 0.8539
314.42 K, 4027.4 kPa | 0.7881
324.78 K, 182.9 kPa | 0.9923
324.78 K, 272.8 kPa | 0.9888
324.78 K, 406.1 kPa | 0.9831
324.78 K, 602.6 kPa | 0.9746
324.78 K, 891.4 kPa | 0.9631
324.78 K, 1309.1 kPa | 0.9449
324.78 K, 1904.7 kPa | 0.9185
324.78 K, 2731.6 kPa | 0.88
324.78 K, 3833.8 kPa | 0.8251
324.79 K, 183.9 kPa | 0.9933
324.79 K, 274.1 kPa | 0.9891
324.79 K, 407.9 kPa | 0.9833
324.79 K, 605.3 kPa | 0.9748
324.79 K, 894.5 kPa | 0.9623
324.79 K, 1313.6 kPa | 0.9441
324.79 K, 1910.8 kPa | 0.9174
324.79 K, 2740 kPa | 0.8789
324.79 K, 3845.5 kPa | 0.824
335.16 K, 175.4 kPa | 0.9949
335.16 K, 261.7 kPa | 0.9913
335.16 K, 389.8 kPa | 0.9864
335.16 K, 579.2 kPa | 0.9792
335.16 K, 857.6 kPa | 0.9686
335.16 K, 1263.2 kPa | 0.9531
335.16 K, 1845.9 kPa | 0.9304
335.16 K, 2665.8 kPa | 0.8977
335.16 K, 3777.8 kPa | 0.8498
335.18 K, 188.5 kPa | 0.9942
335.18 K, 281 kPa | 0.9902
335.18 K, 418.3 kPa | 0.9847
335.18 K, 621.3 kPa | 0.9772
335.18 K, 919.2 kPa | 0.9658
335.18 K, 1352.3 kPa | 0.9492
335.18 K, 1972.3 kPa | 0.9248
335.18 K, 2839.6 kPa | 0.8895
335.18 K, 4008.4 kPa | 0.8389
345.51 K, 185.8 kPa | 0.9943
345.51 K, 277.2 kPa | 0.991
345.51 K, 413 kPa | 0.9863
345.51 K, 613.8 kPa | 0.9794
345.51 K, 909.5 kPa | 0.9693
345.51 K, 1340.3 kPa | 0.9543
345.51 K, 1960.2 kPa | 0.9324
345.51 K, 2834.5 kPa | 0.9008
345.51 K, 4029 kPa | 0.8553
345.58 K, 184.6 kPa | 0.9943
345.58 K, 275.5 kPa | 0.9911
345.58 K, 410.4 kPa | 0.9865
345.58 K, 610.1 kPa | 0.9797
345.58 K, 903.9 kPa | 0.9697
345.58 K, 1332.3 kPa | 0.9548
345.58 K, 1949.3 kPa | 0.9332
345.58 K, 2819.4 kPa | 0.9017
345.58 K, 4008.9 kPa | 0.8565
364.36 K, 207.6 kPa | 0.9928
364.36 K, 241.7 kPa | 0.9925
364.36 K, 309.9 kPa | 0.9907
364.36 K, 360.3 kPa | 0.9889
364.36 K, 462 kPa | 0.9871
364.36 K, 536.5 kPa | 0.9843
364.36 K, 687.1 kPa | 0.9812
364.36 K, 797.5 kPa | 0.9779
364.36 K, 1018.5 kPa | 0.9723
364.36 K, 1179.8 kPa | 0.967
364.36 K, 1502.7 kPa | 0.9588
364.36 K, 1737 kPa | 0.9517
364.36 K, 2201.5 kPa | 0.9389
364.36 K, 2535.6 kPa | 0.9285
364.36 K, 3191.1 kPa | 0.9097
364.36 K, 3655.3 kPa | 0.8947
364.36 K, 4555 kPa | 0.8679
364.36 K, 5179.9 kPa | 0.8475
